Measurements taken from publication PMC11509912, “Identification of Novel PPARγ Partial Agonists Based on Virtual Screening Strategy: In Silico and In Vitro Experimental Validation” (Molecules, 2024).

Tests used:
PPARγ [1] = biological target: T1, PPARγ (Homo sapiens, UniProt P37231); test: cos-7 cells transfected with hPPARγ, PPRE×[…] TK-luciferase transactivation assay at […]; format: cell-based
T1 construct: gene PPARG; hPPARγ plasmid
T1 sequence (P37231 1-505): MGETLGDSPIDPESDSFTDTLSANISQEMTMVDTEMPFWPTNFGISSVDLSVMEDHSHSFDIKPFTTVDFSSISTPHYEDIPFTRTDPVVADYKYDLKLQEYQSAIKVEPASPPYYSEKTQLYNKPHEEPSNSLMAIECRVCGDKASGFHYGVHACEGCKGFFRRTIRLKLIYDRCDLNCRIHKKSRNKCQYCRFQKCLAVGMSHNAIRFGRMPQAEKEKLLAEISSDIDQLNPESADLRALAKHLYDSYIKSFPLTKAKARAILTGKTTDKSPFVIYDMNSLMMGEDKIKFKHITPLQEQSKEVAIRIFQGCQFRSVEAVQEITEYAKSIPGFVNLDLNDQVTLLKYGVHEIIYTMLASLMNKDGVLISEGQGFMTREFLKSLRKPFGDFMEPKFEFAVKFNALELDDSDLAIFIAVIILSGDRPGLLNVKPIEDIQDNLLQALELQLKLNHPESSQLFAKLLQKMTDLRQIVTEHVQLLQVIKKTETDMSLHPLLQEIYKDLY

PPARγ [2] = biological target: T2, PPARγ (Homo sapiens, UniProt P37231); test: LanthaScreen TR-FRET competitive binding assay (IC50 […]); supported by cell-based PPRE-luciferase assay (weak/partial agonism)
T2 construct: gene PPARG; PPARγ LBD
T2 sequence (P37231 231-505 limits assumed): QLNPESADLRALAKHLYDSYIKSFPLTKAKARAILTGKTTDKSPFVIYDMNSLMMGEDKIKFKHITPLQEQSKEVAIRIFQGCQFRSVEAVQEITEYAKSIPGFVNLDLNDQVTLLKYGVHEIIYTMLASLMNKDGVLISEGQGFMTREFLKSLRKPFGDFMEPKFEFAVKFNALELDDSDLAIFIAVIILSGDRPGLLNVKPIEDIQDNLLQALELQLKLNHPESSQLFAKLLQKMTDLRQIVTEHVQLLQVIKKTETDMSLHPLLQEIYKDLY

| SMILES | cos-7 cells transfected with hPPARγ, PPRE×3 TK-luciferase transactivation assay (PPARγ [1]) | Ki (PPARγ [2]) [µM] |
| --- | --- | --- |
| Clc1ccc(C(Cn2ccnc2)OCc2ccc(Sc3ccccc3)cc2)c(Cl)c1 (centres unmarked) [FN, fenticonazole] | podophyllotoxone exhibited weak PPARγ agonistic activity, similar to fenticonazole (FN), a PPARγ partial agonist |  |
| COc1cc([C@@H]2c3cc4c(cc3C(=O)[C@H]3COC(=O)[C@H]23)OCO4)cc(OC)c1OC [podophyllotoxone] |  | 9.86 |
